Test results as given in the supplement of paper PMC10307832.

Tests used:
Assay in all cases: relative viability (nuclei count vs DMSO), 5 days (fraction); higher = more cells survive
NCI-H441 = test system: NCI-H441
Outline: (§1)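 Lung cancer cell lines in 1536-well plates were dosed by pin tool the day after seeding, either with one drug alone or with a fixed anchor-drug dose plus five library-drug doses (not always all listed) in √10 steps. After 5 days, cells were fixed and their nuclei stained in one step (final 0.05% Triton X-100, 1% formaldehyde, 1 ug/ml Hoechst), then counted on 4× images. Relative viability is the nuclei count in treated wells divided by that in vehicle wells. Values are medians of duplicate plates.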

NCI-H1650 = test system: NCI-H1650
Outline: as §1

NCI-H2023 = test system: NCI-H2023
Outline: as §1

NCI-H1915 = test system: NCI-H1915
Outline: as §1

LCLC-97TM1 = test system: LCLC-97TM1
Outline: as §1

NCI-H727 = test system: NCI-H727
Outline: as §1

H3255 = test system: H3255
Outline: as §1

NCI-H520 = test system: NCI-H520
Outline: as §1

NCI-H596 = test system: NCI-H596
Outline: as §1

NCI-H1792 = test system: NCI-H1792
Outline: as §1

NCI-H650 = test system: NCI-H650
Outline: as §1

ABC-1 = test system: ABC-1
Outline: as §1

NCI-H1944 = test system: NCI-H1944
Outline: as §1

NCI-H1651 = test system: NCI-H1651
Outline: as §1

HCC-15 = test system: HCC-15
Outline: as §1

NCI-H661 = test system: NCI-H661
Outline: as §1

BEN = test system: BEN
Outline: as §1

A-427 = test system: A-427
Outline: as §1

CAL-12T = test system: CAL-12T
Outline: as §1

LC-2-ad = test system: LC-2-ad
Outline: as §1

NCI-H2087 = test system: NCI-H2087
Outline: as §1

NCI-H460 = test system: NCI-H460
Outline: as §1

PC-3 [JPC-3] = test system: PC-3 [JPC-3]
Outline: as §1

201T = test system: 201T
Outline: as §1

## CC(C)Oc1cc(Nc2nc(N[C@@H](C)c3ccc(F)cn3)ncc2Cl)n[nH]1 [AZ23] + CCNC(=O)c1noc(-c2cc(C(C)C)c(O)cc2O)c1-c1ccc(CN2CCOCC2)cc1 [Luminespib] (partner 0.01 µM)
NCI-H441; first compound 0.01 µM
  relative viability: 0.28
NCI-H441; first compound 0.03162 µM
  relative viability: 0.344
NCI-H441; first compound 0.3162 µM
  relative viability: 0.376
NCI-H1650; first compound 0.03162 µM
  relative viability: 0.202
NCI-H1650; first compound 0.3162 µM
  relative viability: 0.195
NCI-H2023; first compound 0.03162 µM
  relative viability: 0.829
NCI-H2023; first compound 0.3162 µM
  relative viability: 0.674
NCI-H1915; first compound 0.01 µM
  relative viability: 1.17
NCI-H1915; first compound 0.03162 µM
  relative viability: 0.866
NCI-H1915; first compound 0.3162 µM
  relative viability: 0.805
LCLC-97TM1; first compound 0.01 µM
  relative viability: 0.846
LCLC-97TM1; first compound 0.03162 µM
  relative viability: 0.783
LCLC-97TM1; first compound 0.3162 µM
  relative viability: 0.796
NCI-H727; first compound 0.01 µM
  relative viability: 0.354
NCI-H727; first compound 0.03162 µM
  relative viability: 0.311
NCI-H727; first compound 0.3162 µM
  relative viability: 0.454
H3255; first compound 0.01 µM
  relative viability: 0.574
H3255; first compound 0.03162 µM
  relative viability: 0.888
H3255; first compound 0.3162 µM
  relative viability: 0.854
NCI-H520; first compound 0.01 µM
  relative viability: 0.236
NCI-H520; first compound 0.03162 µM
  relative viability: 0.22
NCI-H520; first compound 0.3162 µM
  relative viability: 0.212
NCI-H596; first compound 0.01 µM
  relative viability: 1.13
NCI-H596; first compound 0.03162 µM
  relative viability: 1.06
NCI-H596; first compound 0.3162 µM
  relative viability: 0.857
NCI-H1792; first compound 0.01 µM
  relative viability: 0.305
NCI-H1792; first compound 0.03162 µM
  relative viability: 0.646
NCI-H1792; first compound 0.3162 µM
  relative viability: 0.466
NCI-H650; first compound 0.01 µM
  relative viability: 0.665
NCI-H650; first compound 0.03162 µM
  relative viability: 0.854
NCI-H650; first compound 0.3162 µM
  relative viability: 0.765
ABC-1; first compound 0.03162 µM
  relative viability: 0.707
ABC-1; first compound 0.3162 µM
  relative viability: 0.624
NCI-H1944; first compound 0.01 µM
  relative viability: 0.557
NCI-H1944; first compound 0.03162 µM
  relative viability: 0.75
NCI-H1944; first compound 0.3162 µM
  relative viability: 0.726
NCI-H1651; first compound 0.03162 µM
  relative viability: 0.753
NCI-H1651; first compound 0.3162 µM
  relative viability: 0.672
HCC-15; first compound 0.01 µM
  relative viability: 0.435
HCC-15; first compound 0.03162 µM
  relative viability: 0.243
HCC-15; first compound 0.3162 µM
  relative viability: 0.338
NCI-H661; first compound 0.01 µM
  relative viability: 1.06
NCI-H661; first compound 0.03162 µM
  relative viability: 0.867
NCI-H661; first compound 0.3162 µM
  relative viability: 0.984
BEN; first compound 0.01 µM
  relative viability: 0.287
BEN; first compound 0.03162 µM
  relative viability: 0.378
BEN; first compound 0.3162 µM
  relative viability: 0.243
A-427; first compound 0.01 µM
  relative viability: 0.844
A-427; first compound 0.03162 µM
  relative viability: 1.03
A-427; first compound 0.3162 µM
  relative viability: 1.03
CAL-12T; first compound 0.03162 µM
  relative viability: 0.364
CAL-12T; first compound 0.3162 µM
  relative viability: 0.568
LC-2-ad; first compound 0.01 µM
  relative viability: 1.26
LC-2-ad; first compound 0.03162 µM
  relative viability: 0.965
LC-2-ad; first compound 0.3162 µM
  relative viability: 0.93
NCI-H2087; first compound 0.01 µM
  relative viability: 0.151
NCI-H2087; first compound 0.03162 µM
  relative viability: 0.171
NCI-H2087; first compound 0.3162 µM
  relative viability: 0.169
NCI-H460; first compound 0.01 µM
  relative viability: 0.0317
NCI-H460; first compound 0.03162 µM
  relative viability: 0.0332
NCI-H460; first compound 0.3162 µM
  relative viability: 0.0248
PC-3 [JPC-3]; first compound 0.01 µM
  relative viability: 0.581
PC-3 [JPC-3]; first compound 0.03162 µM
  relative viability: 0.582
PC-3 [JPC-3]; first compound 0.3162 µM
  relative viability: 0.637
201T; first compound 0.01 µM
  relative viability: 1.15
201T; first compound 0.03162 µM
  relative viability: 1.02
201T; first compound 0.3162 µM
  relative viability: 1.02

## CC(C)Oc1cc(Nc2nc(N[C@@H](C)c3ccc(F)cn3)ncc2Cl)n[nH]1 [AZ23] + COc1cccc2cc(-c3nc([C@H]4CC[C@H](C(=O)O)CC4)n4ncnc(N)c34)[nH]c12 [OSI-027] (partner 0.5 µM)
NCI-H441; first compound 0.01 µM
  relative viability: 0.707
NCI-H441; first compound 0.03162 µM
  relative viability: 0.729
NCI-H441; first compound 0.3162 µM
  relative viability: 0.566
NCI-H1650; first compound 0.03162 µM
  relative viability: 0.689
NCI-H1650; first compound 0.3162 µM
  relative viability: 0.713
NCI-H2023; first compound 0.03162 µM
  relative viability: 0.373
NCI-H2023; first compound 0.3162 µM
  relative viability: 0.437
NCI-H1915; first compound 0.01 µM
  relative viability: 0.664
NCI-H1915; first compound 0.03162 µM
  relative viability: 0.635
NCI-H1915; first compound 0.3162 µM
  relative viability: 0.65
LCLC-97TM1; first compound 0.01 µM
  relative viability: 0.495
LCLC-97TM1; first compound 0.03162 µM
  relative viability: 0.519
LCLC-97TM1; first compound 0.3162 µM
  relative viability: 0.586
NCI-H727; first compound 0.01 µM
  relative viability: 0.496
NCI-H727; first compound 0.03162 µM
  relative viability: 0.558
NCI-H727; first compound 0.3162 µM
  relative viability: 0.605
H3255; first compound 0.01 µM
  relative viability: 0.55
H3255; first compound 0.03162 µM
  relative viability: 0.618
H3255; first compound 0.3162 µM
  relative viability: 0.635
NCI-H520; first compound 0.01 µM
  relative viability: 0.276
NCI-H520; first compound 0.03162 µM
  relative viability: 0.281
NCI-H520; first compound 0.3162 µM
  relative viability: 0.278
NCI-H596; first compound 0.01 µM
  relative viability: 0.711
NCI-H596; first compound 0.03162 µM
  relative viability: 0.834
NCI-H596; first compound 0.3162 µM
  relative viability: 0.671
NCI-H1792; first compound 0.01 µM
  relative viability: 0.752
NCI-H1792; first compound 0.03162 µM
  relative viability: 0.782
NCI-H1792; first compound 0.3162 µM
  relative viability: 0.841
NCI-H650; first compound 0.01 µM
  relative viability: 0.463
NCI-H650; first compound 0.03162 µM
  relative viability: 0.564
NCI-H650; first compound 0.3162 µM
  relative viability: 0.579
ABC-1; first compound 0.01 µM
  relative viability: 0.398
ABC-1; first compound 0.03162 µM
  relative viability: 0.408
ABC-1; first compound 0.3162 µM
  relative viability: 0.469
NCI-H1944; first compound 0.01 µM
  relative viability: 0.401
NCI-H1944; first compound 0.03162 µM
  relative viability: 0.456
NCI-H1944; first compound 0.3162 µM
  relative viability: 0.498
NCI-H1651; first compound 0.03162 µM
  relative viability: 0.77
NCI-H1651; first compound 0.3162 µM
  relative viability: 0.881
HCC-15; first compound 0.01 µM
  relative viability: 0.687
HCC-15; first compound 0.03162 µM
  relative viability: 0.665
HCC-15; first compound 0.3162 µM
  relative viability: 0.684
NCI-H661; first compound 0.01 µM
  relative viability: 0.666
NCI-H661; first compound 0.03162 µM
  relative viability: 0.766
NCI-H661; first compound 0.3162 µM
  relative viability: 0.755
BEN; first compound 0.01 µM
  relative viability: 0.312
BEN; first compound 0.03162 µM
  relative viability: 0.287
BEN; first compound 0.3162 µM
  relative viability: 0.268
A-427; first compound 0.01 µM
  relative viability: 0.37
A-427; first compound 0.03162 µM
  relative viability: 0.448
A-427; first compound 0.3162 µM
  relative viability: 0.34
CAL-12T; first compound 0.03162 µM
  relative viability: 0.593
CAL-12T; first compound 0.3162 µM
  relative viability: 0.778
LC-2-ad; first compound 0.01 µM
  relative viability: 0.953
LC-2-ad; first compound 0.03162 µM
  relative viability: 0.802
LC-2-ad; first compound 0.3162 µM
  relative viability: 0.672
NCI-H2087; first compound 0.01 µM
  relative viability: 0.675
NCI-H2087; first compound 0.03162 µM
  relative viability: 0.477
NCI-H2087; first compound 0.3162 µM
  relative viability: 0.459
NCI-H460; first compound 0.01 µM
  relative viability: 0.382
NCI-H460; first compound 0.03162 µM
  relative viability: 0.657
NCI-H460; first compound 0.3162 µM
  relative viability: 0.885
PC-3 [JPC-3]; first compound 0.01 µM
  relative viability: 0.857
PC-3 [JPC-3]; first compound 0.03162 µM
  relative viability: 0.71
PC-3 [JPC-3]; first compound 0.3162 µM
  relative viability: 0.742
201T; first compound 0.01 µM
  relative viability: 0.504
201T; first compound 0.03162 µM
  relative viability: 0.827
201T; first compound 0.3162 µM
  relative viability: 0.728
